Results from patent publication US20230250096A1, “SUBSTITUTED PHENYL-1H-PYRROLO[2,3-c] PYRIDINE DERIVATIVES” (Janssen Pharmaceutica NV, priority 2021, published 2023).
Read-outs that look alike come from different tables or passages of the source.

What was measured:
[1] = biological target: T1, menin/MLL (terbium chelate-labeled menin, FITC-MBM1 peptide) (Homo sapiens, UniProt O00255, T541A); experiment: Menin/MLL homogenous time-resolved fluorescence (HTRF) assay; format: binding; conditions: 30 min incubation
T1 construct: Menin (a.a 1-610-6xhis tag, 2.3 mg/mL in 20 mM Hepes)
T1 sequence (O00255 with tags, fused parts or gaps T541A): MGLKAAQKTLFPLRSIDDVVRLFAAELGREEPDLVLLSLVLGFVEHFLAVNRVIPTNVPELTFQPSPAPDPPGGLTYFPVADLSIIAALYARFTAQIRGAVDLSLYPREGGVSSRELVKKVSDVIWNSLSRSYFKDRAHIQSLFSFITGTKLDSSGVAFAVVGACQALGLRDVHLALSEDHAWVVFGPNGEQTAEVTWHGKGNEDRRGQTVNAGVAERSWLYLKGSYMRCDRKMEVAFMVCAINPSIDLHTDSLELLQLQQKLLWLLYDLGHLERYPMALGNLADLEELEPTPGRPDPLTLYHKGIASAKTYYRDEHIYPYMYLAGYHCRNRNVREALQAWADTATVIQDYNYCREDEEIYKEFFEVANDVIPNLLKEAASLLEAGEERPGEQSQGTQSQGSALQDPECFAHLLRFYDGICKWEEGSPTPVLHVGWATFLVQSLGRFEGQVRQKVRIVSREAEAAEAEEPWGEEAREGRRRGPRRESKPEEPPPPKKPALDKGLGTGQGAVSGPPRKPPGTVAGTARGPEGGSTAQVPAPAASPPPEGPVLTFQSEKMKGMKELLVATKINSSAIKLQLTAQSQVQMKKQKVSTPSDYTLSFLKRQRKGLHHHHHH
In short: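 Competition binding read by time-resolved FRET (FITC 520 nm over terbium 490 nm) after compound meets labeled menin 1-610-His […] for 30 min, then FITC-MBM1 (75 nM) for 15 min, ambient temperature, 0.5% DMSO. Eleven-point four-fold dilutions, usually starting at 10 μM, fitted to four-parameter curves for IC50.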

MOLM14 cells = experiment: Proliferation assay (spheroid confluence, 8 days), MOLM14; format: cell-based, human; conditions: read-out: spheroid assay_MOLM14 IC50
Description: The anti-proliferative effect of menin/MLL protein/protein interaction inhibitor test compounds was assessed in human leukemia cell lines. The cell line MOLM14 harbors a MLL translocation and expresses the MLL fusion protein MLL-AF9, respectively, as well as the wildtype protein from the second allele. OCI-AML3 cells that carry the NPM1c gene mutation were also tested. […] KO-52 was used as a control cell line containing two MLL (KMT2A) wildtype alleles in order to exclude compounds that display general cytotoxic effects.
MOLM14 cells were cultured in RPMI-1640 (Sigma Aldrich) supplemented with 10% heat-inactivated fetal bovine serum (HyClone), 2 mM L-glutamine (Sigma Aldrich) and 50 μg/ml gentamycin (Gibco). KO-52 and OCI-AML3 cell lines were propagated in alpha-MEM (Sigma Aldrich) supplemented with 20% heat-inactivated fetal bovine serum (HyClone), 2 mM L-glutamine (Sigma Aldrich) and 50 μg/ml gentamycin (Gibco).
In order to assess the anti-proliferative effects, 200 MOLM14 cells, 200 OCI-AML3 cells or 300 KO-52 cells were seeded in 200 μl media per well in 96-well round bottom, ultra-low attachment plates (Costar, catalogue number 7007). Cell seeding numbers were chosen based on growth curves to ensure linear growth throughout the experiment. Test compounds were added at different concentrations and the DMSO content was normalized to 0.3%. Cells were incubated for 8 days at 37° C. and 5% CO2. Spheroid like growth was measured in real-time by live-cell imaging (IncuCyteZOOM, Essenbio, 4×objective) acquiring images at day 8. Confluence (%) as a measure of spheroid size was determined using an integrated analysis tool.
In order to determine the effect of the test compounds over time, the confluence in each well as a measure of spheroid size, was calculated. Confluence of the highest dose of a reference compound was used as baseline for the LC (Low control) and the confluence of DMSO treated cells was used as 0% cytotoxicity (High Control, HC).
Absolute IC50 values were calculated as percent change in confluence as follows:
LC=Low Control: cells treated with e.g. 1 μM of the cytotoxic agent staurosporin, or e.g. cells treated with a high concentration of an alternative reference compound
HC=High Control: Mean confluence (%) (DMSO treated cells)
% Effect=100−(100*(Sample−LC)/(HC−LC))
GraphPad Prism (version 7.00) was used to calculate the IC50. Dose-response equation was used for the plot of % Effect vs Log10 compound concentration with a variable slope and fixing the maximum to 100% and the minimum to 0%.

MEIS1 mRNA expression = MEIS1 mRNA expression assay (Quantigene Singleplex) in MOLM14 cells; format: cell-based, human; conditions: 48 hours incubation
In short: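 Read-out: MEIS1 transcript counts, background-subtracted and divided by RPL28, expressed as fold change over DMSO-treated cells, then dose-response modelled for IC50. MOLM14 cells (3,750/well) received graded compound for 48 h before lysis and QuantiGene hybridization at 55 °C.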

| SMILES | IC50 [1] [nM] | IC50 (MOLM14 cells; Homo sapiens, MOLM-14, MOLM14) [nM] | IC50 (MEIS1 mRNA expression; Homo sapiens, MOLM-14, 48 h) [nM] | IC50 (MOLM14 cells; MOLM14) [nM] | IC50 (MEIS1 mRNA expression) [nM] |
| --- | --- | --- | --- | --- | --- |
| Cc1cncc2c1c(C[C@H]1CCN(CC3CCC(=O)NC3)C1)cn2-c1ccc(F)cc1C(=O)N(C)C(C)C (mixture of isomers) [Compound 88] | 0.093 | 96 | 140 | – | – |
| Cc1cncc2c1c(C[C@@H]1CCN(CC3CCN(C)C(=O)C3)C1)cn2-c1ccc(F)cc1C(=O)N(C)C(C)C (mixture of isomers) [Compound 171] | 0.581 | 337 | > 1000 | – | – |
| Cc1cncc2c1c(C[C@H]1CCN([C@H](C)C3CCOCC3)C1)cn2-c1ccc(F)cc1C(=O)N(C)C(C)C (single isomer, unassigned) [Compound 49a] | 0.227 | 113 | 221 | – | – |
| CN=S(=O)(c1cc(F)ccc1-n1cc(CC2CCN(CC3CCOCC3)C2)c2c(C)cncc21)C(C)C (single isomer, unassigned) [Compound 77a] | 0.105 | – | – | 117 | 206 |
| Cc1cncc2c1c(C[C@@H]1CCN(CC3CCOCC3)C1)cn2-c1ccc(F)cc1[S@@](=N)(=O)C(C)C (single isomer, unassigned) [Compound 78c] | 0.382 | 200 | 416 | – | – |
| COCC(=O)N1CCC(C(C)N2CCC(Cc3cn(-c4ccc(F)cc4C(=O)N(C)C(C)C)c4cncc(C)c34)C2)CC1 (single isomer, unassigned) [Compound 117b] | 0.27 | – | – | 300 | 411 |
| CC(=O)N1CCC(C)(CN2CC[C@H](Cc3cn(-c4ccc(F)cc4C(=O)N(C)C(C)C)c4cncc(C)c34)C2)CC1 (single isomer, unassigned) [Compound 122] | 0.05 | 12 | 18 | – | – |
| Cc1cncc2c1c(CC1CCN(CC3(C)CCN(C(=O)CO)CC3)C1)cn2-c1ccc(F)cc1C(=O)N(C)C(C)C (single isomer, unassigned) [Compound 123] | 0.052 | 16 | 31 | – | – |
| Cc1cncc2c1c(CC1CCN(CC3CCN(C(=O)C(C)(C)C#N)CC3)C1)cn2-c1ccc(F)cc1C(=O)N(C)C(C)C (single isomer, unassigned) [Compound 126] | 0.091 | 18 | 32 | – | – |
| CC(=O)N1CCC(CN2CC[C@@H](Cc3cn(-c4ccc(F)cc4C(=O)N(C)C(C)C)c4cncc(C)c34)C2)CC1 [Compound 51] | 0.042 | 8 | – | – | – |
| Cc1cncc2c1c(C[C@@H]1CCN(CC3CCN(C(=O)C(C)C)CC3)C1)cn2-c1ccc(F)cc1C(=O)N1CC(O)CC1C (some centres unmarked) [Compound 333] | 0.251 | – | ~394 | – | – |
| COC(=O)N1CCC(CN2CC[C@@H](Cc3cn(-c4ccc(F)cc4C(=O)N(CCO)C(C)C)c4cncc(C)c34)C2)CC1 [Compound 334] | 0.224 | – | 12 | – | – |
| COC(=O)N1CCC(CN2CC[C@@H](Cc3cn(-c4ccc(F)cc4C(=O)N(C[C@H](C)O)C(C)C)c4cncc(C)c34)C2)CC1 [Compound 335] | 0.193 | – | 18 | – | – |
| COC(=O)N1CCC(CN2CC[C@@H](Cc3cn(-c4ccc(F)cc4C(=O)N(C[C@@H](C)O)C(C)C)c4cncc(C)c34)C2)CC1 [Compound 336] | 0.128 | – | 33 | – | – |
| CC(=O)N1CCC(C)(CN2CC[C@@H](Cc3cn(-c4ccc(F)cc4C(=O)N(CCO)C(C)C)c4cncc(C)c34)C2)CC1 [Compound 337] | 0.092 | – | 24 | – | – |
| CC(=O)N1CCC(C)(CN2CC[C@@H](Cc3cn(-c4ccc(F)cc4C(=O)N(C[C@H](C)O)C(C)C)c4cncc(C)c34)C2)CC1 [Compound 338] | 0.185 | – | 37 | – | – |
| CC(=O)N1CCC(C)(CN2CC[C@@H](Cc3cn(-c4ccc(F)cc4C(=O)N(C[C@@H](C)O)C(C)C)c4cncc(C)c34)C2)CC1 [Compound 339] | 0.193 | – | 68 | – | – |
| Cc1cncc2c1c(C[C@@H]1CCN(CC3CCN(C(=O)C(C)(C)O)CC3)C1)cn2-c1ccc(F)cc1C(=O)N1CCCC12CC2 [Compound 340] | 0.034 | – | > 1000 | – | – |
| Cc1cncc2c1c(C[C@@H]1CCN(CC3CCN(C(=O)C(C)(C)O)CC3)C1)cn2-c1ccc(F)cc1C(=O)N1CCC2CC21 (some centres unmarked) [Compound 341] | 0.037 | – | 20 | – | – |
| CCC1CCCN1C(=O)c1cc(F)ccc1-n1cc(C[C@@H]2CCN(CC3CCN(C(=O)C(C)(C)O)CC3)C2)c2c(C)cncc21 (some centres unmarked) [Compound 342] | 0.188 | – | 107 | – | – |
| Cc1cncc2c1c(C[C@@H]1CCN(CC3CCN(C(=O)C(C)(C)O)CC3)C1)cn2-c1ccc(F)cc1C(=O)N1[C@H](C)CC[C@H]1C [Compound 343] | 0.045 | – | 13 | – | – |
| Cc1cncc2c1c(C[C@@H]1CCN(CC3CCN(C(=O)C(C)(C)O)CC3)C1)cn2-c1ccc(F)cc1C(=O)N1[C@H](C)CC[C@@H]1C [Compound 344] | ~0.058 | – | 14 | – | – |
| Cc1cncc2c1c(C[C@@H]1CCN(CC3CCN(C(=O)C(C)(C)O)CC3)C1)cn2-c1ccc(F)cc1C(=O)N1CC2CC1CO2 (some centres unmarked) [Compound 345] | 0.204 | – | 36 | – | – |
| CC(=O)N1CC2CC(CN3CC[C@@H](Cc4cn(-c5ccc(F)cc5C(=O)N5CCC[C@H]5CO)c5cncc(C)c45)C3)CC(C2)C1 (some centres unmarked) [Compound 349] | 6.68 | – | > 1000 | – | – |
| CC(=O)N1CC2CC(CN3CC[C@@H](Cc4cn(-c5ccc(F)cc5C(=O)N(CC(C)O)C(C)C)c5cncc(C)c45)C3)CC(C2)C1 (some centres unmarked) [Compound 350] | 0.583 | – | ~1000 | – | – |
| CC(=O)N1CCC(CN2CC[C@@H](Cc3cn(-c4ccc(F)cc4C(=O)N4[C@H](C)CC[C@H]4C)c4cncc(C)c34)C2)CC1 [Compound 354] | 0.04 | – | 18 | – | – |
| Cc1cncc2c1c(C[C@@H]1CCN(CC3CCOCC3)C1)cn2-c1ccc(F)cc1C(=O)N1CCC[C@H]1CO [Compound 360] | 0.127 | – | 107 | – | – |
| Cc1cncc2c1c(C[C@@H]1CN[C@H](C)C1)cn2-c1ccc(F)cc1C(=O)N(C)C(C)C [Compound 504] | 23.9 | – | > 1000 | – | – |
